# Data taken from patent publication US20080096922A1, “Novel Sulfonamide derivative” (Dainippon Sumitomo Pharma Co., Ltd., priority 2004, published 2008).
# Where a name gives a salt, the structure may show the parent alone.
# Tested on: LDL receptor
# Experiment: Effects on an activity of a LDL receptor: uptake amount of DiI-LDL into HepG2 cell
# Format: cell-based, human
# Settings: 1 μM, control group as 100%
# Protocol: The 1,1′-dioctadecyl-3,3,3′,3′-tetramethylindocarbocyanine perchlorate (DiI)-labeled LDL (DiI-LDL) was prepared as follows. That is, a DiI (Invitrogen Corp., U.S.A) was mixed with a human LDL (Chemicon International, Inc., U.S.A) and the mixture was incubated at 37° C. for 8 hours. […] After centrifugation, the DiI-labeled LDL fraction was separated and dialyzed with a physiological saline to prepare the above desired solution.
# The effects on a LDL receptor activity were determined as the uptake amount of DiI-LDL into HepG2 cell. The cultured human hepatic cell line HepG2 cell was purchased from the Dainippon Pharmaceuticals Co. Ltd. (Osaka, Japan). The HepG2 cells were seeded in a 96 well plate and were incubated in the Dulbecco's modified Eagle/F-12 (DMEM/F-12) medium containing 10% fetal bovine serum and antibiotics in a CO2 incubator at 37° C. for two to three days. After washing the cells, a DMEM/F-12 medium containing 5-10% lipoprotein-deficient serum, the test substrate and the antibiotics were added thereto and the cells were incubated at 37° C. for 19 hours. After adding DiI-LDL, the cells were incubated in a CO2 incubator at 37° C. for another 5 hours. The uptake amount of non-specific DiI-LDL was measured by adding 30 to 50 folds amount of the non-labeled LDL. After washing the cells with Dulbecco's phosphate buffer (Sigma Corp., U.S.A.), the Dulbecco's phosphate buffer was added to each well and then the uptake amount of DiI-LDL into the cell line were measured as the value of fluorescence. After measuring the fluorescence, the Dulbecco's phosphate buffer was removed and thereto was added 1N sodium hydroxide solution to dissolve the cells and the amount of protein was measured by using a part of the resulting solution. The effect on a LDL receptor activity by each compound was determined by calculating the ratio of the amount of fluorescence/the amount of protein, and by subtracting the non-specific uptake amount therefrom and then calculating the control group as 100%.
row,SMILES,Activity of (%) LDL receptor [%]
1,"COc1cccc([C@]2(CNS(=O)(=O)N(C)C(=O)OC(C)(C)C)CC[C@@H](NCc3ccc(-c4ccccc4)cc3)CC2)c1 [Example 48, tert-butyl [({[cis-4-[(biphenyl-4-ylmethyl)amino]-1-(3-methoxyphenyl)cyclohexyl]methyl}amino)sulfonyl]methylcarbamate]",145
2,"CNS(=O)(=O)NC[C@]1(c2cccc(OC)c2)CC[C@H](NCc2ccc(-c3ccccc3)cc2)CC1.Cl [Example 49, N-{[cis-4-[(biphenyl-4-ylmethyl)amino]-1-(3-methoxyphenyl)cyclohexyl]methyl}-N′-methylsulfamide hydrochloride]",208
3,"COc1cccc([C@]2(CNS(N)(=O)=O)CC[C@@H](NCc3ccc(-c4ccccc4)cc3)CC2)c1.Cl [Example 42, N-{[cis-4-[(biphenyl-4-ylmethyl)amino]-1-(3-methoxyphenyl)cyclohexyl]methyl}sulfamide hydrochloride]",188
4,"COc1cccc([C@]2(CNS(C)(=O)=O)CC[C@@H](NCc3ccc(-c4ccccc4)cc3)CC2)c1 [Example 24, N-{[cis-4-[(biphenyl-4-ylmethyl)amino]-1-(3-methoxyphenyl)cyclohexyl]methyl}methanesulfonamide]",238
5,"COc1cccc([C@]2(CNS(N)(=O)=O)CC[C@@H](NC(C)c3ccccc3)CC2)c1 (stereo partly drawn) [Example 20, N-({cis-1-(3-methoxyphenyl)-4-[(1-phenylethyl)amino]-cyclohexyl}methyl)sulfamide]",128

# Same assay, conditions: 3 μM, control group as 100%
row,SMILES,Activity of (%) LDL receptor [%]
1,"COc1cccc([C@]2(CNS(=O)(=O)c3ccc(C)cc3)CC[C@@H](NCc3ccc(-c4ccccc4)cc3)CC2)c1 [Example 25, N-{[cis-4-[(biphenyl-4-ylmethyl)amino]-1-(3-methoxyphenyl)cyclohexyl]methyl}-4-methylbenzenesulfonamide]",153
2,"COc1cccc([C@]2(CCNS(N)(=O)=O)CC[C@@H](NCc3ccc(-c4ccccc4)cc3)CC2)c1.Cl [Example 22, N-{2-[trans-4-[(biphenyl-4-ylmethyl)amino]-1-(3-methoxyphenyl)cyclohexyl]ethyl}sulfamide hydrochloride]",156
3,"COc1cccc([C@]2(CNS(N)(=O)=O)CC[C@H](NCc3ccc(-c4ccccc4)cc3)CC2)c1 [Example 43, N-{[trans-4-[(biphenyl-4-ylmethyl)amino]-1-(3-methoxyphenyl)cyclohexyl]methyl}sulfamide hydrochloride]",146
4,"COc1cccc(C2(C(=O)NS(=O)(=O)Oc3c(C(C)C)cccc3C(C)C)CC3CCCC(C2)N3c2ccccc2OC)c1.Cl (stereo not shown) [Example 57, 2,6-diisopropylphenyl {[9-(2-methoxyphenyl)-3-(3-methoxyphenyl)-9-azabicyclo[3.3.1]nonan-3-yl]carbonyl}sulfamate hydrochloride]",124

# Same assay, conditions: 10 μM, control group as 100%
row,SMILES,Activity of (%) LDL receptor [%]
1,"COc1cccc(C2(C(=O)NP(=O)(Cc3ccccc3C)OC)CCN(c3ccccc3OC)CC2)c1 (stereo not shown) [Example 2-1, methyl N-{[1-(2-methoxyphenyl)-4-(3-methoxyphenyl)piperidin-4-yl]carbonyl}-P-(2-methylbenzyl)-phosphonamidate]",140
2,"COc1cccc(C2(NS(=O)(=O)NC(=O)c3ccc(Cl)cc3)CCN(c3ncccn3)CC2)c1 [Example 34, 4-chloro-N-({[4-(3-methoxyphenyl)-1-pyrimidin-2-yl-piperidin-4-yl]amino}sulfonyl)benzamide]",139
3,"COc1cccc([C@]2(CNS(N)(=O)=O)CC[C@@H](NCc3ccc(S(N)(=O)=O)cc3)CC2)c1.Cl [Example 38, 4-({[cis-4-{[(aminosulfonyl)amino]methyl}-4-(3-methoxyphenyl)cyclohexyl]amino}methyl)benzenesulfonamide hydrochloride]",150
4,"COc1cccc([C@]2(CNS(C)(=O)=O)CC[C@H](N3CCN(C)CC3)CC2)c1 [Example 13-1, N-{[trans-1-(3-methoxyphenyl)-4-(4-methylpiperazin-1-yl)cyclohexyl]methyl}methanesulfonamide]",129
5,"COc1cccc(C2(C(=O)NS(=O)(=O)Oc3c(C(C)C)cccc3C(C)C)CCC(Nc3ccccc3OC)CC2)c1 (stereo not shown) [Example 3-2, 2,6-diisopropylphenyl ({1-(3-methoxyphenyl)-4-[(2-methoxyphenyl)amino]cyclohexyl}carbonyl)sulfamate]",154
6,"COc1cccc([C@]2(CNS(N)(=O)=O)CC[C@H](NC3CCN(Cc4ccccc4)CC3)CC2)c1 [Example 55, N-{[trans-4-[(1-benzylpiperidin-4-yl)amino]-1-(3-methoxyphenyl)cyclohexyl]methyl}sulfamide dihydrochloride]",140
7,"COc1cccc(C2(CNS(C)(=O)=O)CCN(c3ccccc3OC)CC2)c1 [Example 27-1, N-{[1-(2-methoxyphenyl)-4-(3-methoxyphenyl)piperidin-4-yl]methyl}methanesulfonamide]",108
8,"COc1cccc(C2(C(=O)NS(N)(=O)=O)CCN(c3ncccn3)CC2)c1 [Example 28-1, N-(aminosulfonyl)-4-(3-methoxyphenyl)-1-pyrimidin-2-ylpiperidine-4-carboxamide]",186
9,"COc1cccc([C@]2(CNS(C)(=O)=O)CC[C@@H](NC3CCN(Cc4ccc(S(C)(=O)=O)cc4)CC3)CC2)c1 [Example 15-2, N-[(cis-1-(3-methoxyphenyl)-4-{1-[4-(methylsulfonyl)-benzyl]piperidin-4-ylamino}cyclohexyl)methyl]methanesulfonamide]",223
10,"COc1cccc([C@]2(CNS(N)(=O)=O)CC[C@@H](NC3CCN(Cc4ccccc4)CC3)CC2)c1 [Example 18-1, N-{[cis-4-[(1-benzylpiperidin-4-yl)amino]-1-(3-methoxyphenyl)cyclohexyl]methyl}sulfamide]",230
11,"COc1cccc(C2(C(=O)NS(=O)(=O)Oc3c(C(C)C)cccc3C(C)C)CCN(c3nc4ccccc4s3)CC2)c1 [Example 1-19, 2,6-diisopropylphenyl {[1-(1,3-benzothiazol-2-yl)-4-(3-methoxyphenyl)piperidin-4-yl]carbonyl}sulfamate]",132
12,"COc1cccc([C@]2(CNS(=O)(=O)NC(=O)OC(C)(C)C)CC[C@@H](NCc3ccc(-c4ccccc4)cc3)CC2)c1 [Example 41, tert-butyl [({[cis-4-[(biphenyl-4-ylmethyl)amino]-1-(3-methoxyphenyl)cyclohexyl]methyl}amino)sulfonyl]carbamate]",173
13,"COc1cccc(C2(C(=O)NS(=O)(=O)Oc3ccccc3C(C)(C)C)CCN(c3ccccc3OC)CC2)c1 [Example 1-8, 2-tert-butylphenyl {[1-(2-methoxyphenyl)-4-(3-methoxyphenyl)piperidin-4-yl]carbonyl}sulfamate]",134
14,"COc1cccc([C@]2(CNS(N)(=O)=O)CC[C@@H](NCc3ccc(-n4ccnc4)cc3)CC2)c1 [Example 18-2, N-{[cis-4-{[4-(1H-imidazol-1-yl)benzyl]amino}-1-(3-methoxyphenyl)cyclohexyl]methyl}sulfamide]",161
15,"COc1cccc(C2(C(=O)NS(=O)(=O)NC(C)c3ccccc3)CCN(c3ncccn3)CC2)c1 (stereo not shown) [Example 28-6, 4-(3-methoxyphenyl)-N-{[(1-phenylethyl)amino]sulfonyl}-1-pyrimidin-2-ylpiperidine-4-carboxamide]",127
16,"COc1cccc(C2(C(=O)NS(=O)(=O)Oc3c(C(C)C)cccc3C(C)C)CCN(c3ncccn3)CC2)c1 [Example 1-17, 2,6-diisopropylphenyl {[4-(3-methoxyphenyl)-1-pyrimidin-2-ylpiperidin-4-yl]carbonyl}sulfamate]",120
17,"COc1cccc([C@]2(CNS(C)(=O)=O)CC[C@@H](NC3CCNCC3)CC2)c1 [Example 10-3, N-{[cis-1-(3-methoxyphenyl)-4-(piperidin-4-ylamino)-cyclohexyl]methyl}methanesulfonamide dihydrochloride]",162
18,"COc1cccc([C@]2(CNS(N)(=O)=O)CC[C@@H](NCc3ccc(-n4cncn4)cc3)CC2)c1 [Example 18-3, N-[(cis-1-(3-methoxyphenyl)-4-{[4-(1H-1,2,4-triazol-1-yl)-benzyl]amino}cyclohexyl)methyl]sulfamide]",154
19,"COc1cccc([C@]2(CNS(C)(=O)=O)CC[C@@H](NCc3ccc(S(C)(=O)=O)cc3)CC2)c1 [Example 12-2, N-[(cis-1-(3-methoxyphenyl)-4-{[4-(methylsulfonyl)benzyl]-amino}cyclohexyl)methyl]methanesulfonamide]",142
